Here are results for 31 compounds from PubChem BioAssay (NCI).

Molecules are shown by their SMILES.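 The compound was tested at five concentrations on cells cultured in 96-well plates, with a 48-hour exposure period. At the GI50, growth is halved. TGI: total growth inhibition.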 Where only a bound is given, the exact number is not on record here.

Test in all cases: inhibition of tumour cell growth, NCI panel, 48 h
The test system of experiment [1] is 786-0 renal.
For experiment [2], the system named is CCRF-CEM leukemia.
Experiment [3] has as its system HT29 colon.
For experiment [4], the system named is KM12 colon.
Experiment [5] deals with NCI-H226 lung.
Experiment [6] deals with SF-295 CNS.
For experiment [7], the system named is SK-MEL-28 melanoma.
In experiment [8] the test system is SNB-19 CNS.
For experiment [9], the system named is MDA-MB-435.

Consider `CC(=O)Nc1ccc(OCC(O)CO)cc1` (stereo not given), for which the TGI in experiment [1] was 70.2 µM; in experiment [2] it was greater than 100 µM; in experiment [3] it was greater than 100 µM; in [4] it was greater than 100 µM; in [5] it was greater than 100 µM; in experiment [6], greater than 100 µM. Besides, the TGI in experiment [7] and in experiment [8] was greater than 100 µM in each case.

Turning to `COc1ccc(S(=O)(=O)N/N=C/CN2C(=O)c3ccccc3C2=O)cc1`, the TGI in [1], in experiment [2], in [3], in [4], in experiment [5] and in [6] was greater than 100 µM each time. In experiment [8], the TGI is greater than 100 µM.

Regarding `O=C(OCc1ccccc1)c1ccccc1-c1c2ccc(=O)cc-2oc2cc(OCc3ccccc3)ccc12`, the TGI is 71 µM in experiment [1]; 36.8 µM in [2]; 55.5 µM in experiment [3]; 31.3 µM in [4]; 32.2 µM in experiment [5]; 80.3 µM in experiment [6]. Moreover, the TGI is 61 µM in [7] and greater than 100 µM in experiment [8].

`NC(N)=NC(N)=NCc1ccco1`: the GI50 in experiment [1] is greater than 1250 µM; in [3] it was greater than 1250 µM; in [4], greater than 1250 µM; in experiment [9], greater than 1250 µM; in experiment [5], greater than 1250 µM; in [6], 321 µM. In addition, the GI50 in [7] and in [8] was greater than 1250 µM throughout. The TGI in experiment [1], in [3], in experiment [4], in experiment [9], in experiment [5] and in experiment [6] was greater than 1250 µM throughout. Further, the TGI in experiment [7] and in [8] was greater than 1250 µM each time.

As for `CCOC(=O)C1C(=O)c2cccc(OC)c2C2COC(=O)N12` (stereo not given), the TGI in experiment [1], in experiment [2], in experiment [3], in experiment [4], in experiment [5] and in experiment [6] was greater than 100 µM in each case. Also, the TGI in experiment [7] and in experiment [8] was greater than 100 µM each time.

`CC1CCC2[C@@H](C)COC3O[C@]4(C)CCC1C32OO4` (stereo not given in full): the TGI in experiment [1], in [2], in experiment [3], in [4], in [5] and in experiment [6] was greater than 100 µM throughout. Also, the TGI in experiment [7] and in [8] was greater than 100 µM in each case.

`CCc1cccc(CC)c1NC(=O)C1=CNC(C)=C(C(=O)Nc2c(CC)cccc2CC)C1c1ccc(O)c(OC)c1` (stereo not given): the TGI in experiment [1] is greater than 100 µM; in experiment [2] it was 61 µM; in [3], 80.2 µM; in experiment [4], 87.4 µM; in experiment [5] it was 89.7 µM; in experiment [6] it was 73.8 µM. Moreover, the TGI in experiment [7] and in experiment [8] was greater than 100 µM throughout.

In the case of `CCN(CC)c1ccc(N=C2C=CC(=C(C#N)C#N)c3ccccc32)c(C)c1`, the TGI came to 6.24 µM in [1]; 6.1 µM in experiment [2]; 24.9 µM in [3]; 5.66 µM in experiment [6]; 4.22 µM in experiment [7]; 13.1 µM in [8].

On to `CN/N=C(/CC(=O)c1sc(NNC(C)=O)nc1C)C(=O)Nc1ccc(OC)cc1OC`, for which the TGI in [1], in experiment [2], in experiment [3], in experiment [4], in experiment [5] and in experiment [6] was greater than 100 µM in each case. Also, the TGI in experiment [7] and in experiment [8] was greater than 100 µM throughout.

As to `N#CC12CC3(CCC1CCC1(C2)OCCO1)OCCO3` (stereo not given), the TGI in experiment [1], in experiment [2], in experiment [4], in experiment [5], in experiment [6] and in experiment [7] was greater than 100 µM each time. In addition, the TGI in experiment [8] was greater than 100 µM.

As for `Nc1ncnc2c1ncn2COC/C=C/I`, the TGI in experiment [1], in [2], in [3], in experiment [4], in experiment [5] and in experiment [6] was greater than 100 µM each time. Further, the TGI in experiment [7] and in experiment [8] was greater than 100 µM in each case.

Consider `CCCCCC/C(CC(=O)CCC(=O)NCCc1ccccc1)=N\NC(=O)c1ccc2ccccc2c1O`, for which the TGI in [1] is greater than 100 µM; in experiment [2], 47.4 µM; in experiment [3], greater than 100 µM; in experiment [4], greater than 100 µM; in [5] it was greater than 100 µM; in [6] it was greater than 100 µM. Also, the TGI in experiment [7] and in [8] was greater than 100 µM in each case.

With `ClCCCN1CCCCC1CCl` (stereo not given), the TGI in [1], in [2], in experiment [3], in [4], in [6] and in experiment [7] was greater than 100 µM in each case. The compound also had a TGI in experiment [8] greater than 100 µM.

For `O=C1OC(=O)C2C1C1C(c3ccccc3)=C(c3ccccc3)C2(O)C2C(=O)OC(=O)C12` (stereo not given), the TGI in experiment [1], in experiment [2], in experiment [3], in experiment [4], in experiment [5] and in experiment [6] was greater than 100 µM throughout. The TGI in [7] and in experiment [8] was greater than 100 µM in each case.

On to `COc1c(OC2OC(CO)C(O)C(O)C2O)cc2c(c1OC)-c1ccc(OC)c(=O)cc1[C@@H](NC(C)=O)CC2` (stereo not given in full), for which the TGI in experiment [1], in experiment [2], in [3], in experiment [4], in [5] and in [6] was greater than 100 µM throughout. Besides, the TGI in [7] and in experiment [8] was greater than 100 µM each time.

`C#Cc1ccccc1N1C(=O)C=CC1=O`: the TGI in [1], in experiment [2], in experiment [3], in experiment [5], in [6] and in [7] was greater than 100 µM in each case. Moreover, the TGI in experiment [8] was greater than 100 µM.

As for `CCOc1cc[n+](C(=C=[N-])C#N)cc1`, the TGI in experiment [1], in experiment [2], in [3], in [4], in experiment [5] and in experiment [6] was greater than 100 µM in each case. Further, the TGI in experiment [8] is greater than 100 µM.

For `CC(=O)N1CCN(C=S)CC1`, the TGI in experiment [1], in [2], in [3], in experiment [4], in experiment [5] and in experiment [6] was greater than 100 µM each time. The TGI in experiment [7] and in experiment [8] was greater than 100 µM throughout.

With `O=[N+]([O-])c1ccc2nc(=S)[nH]n2c1`, the TGI in experiment [1], in experiment [2], in experiment [3], in experiment [4], in [9] and in experiment [5] was greater than 100 µM each time. The TGI in experiment [6] and in [8] was greater than 100 µM each time.

As to `C/C(=N\NS(=O)(=O)c1ccccc1)c1ccc[n+]([O-])n1`, the TGI in experiment [1] is greater than 100 µM; in [2], 64.6 µM; in experiment [3], greater than 100 µM; in experiment [4], greater than 100 µM; in experiment [6] it was greater than 100 µM; in experiment [7], greater than 100 µM. In addition, the TGI in experiment [8] is greater than 100 µM.

`CCCCCCC(=O)CC(=O)C(=O)Nc1ccccc1C`: the TGI in experiment [1], in experiment [2], in [3], in experiment [4], in experiment [5] and in [6] was greater than 100 µM each time. Also, the TGI in experiment [7] and in [8] was greater than 100 µM in each case.

For `NC(C(=O)O)c1ccc(C(=O)O)cc1` (stereo not given), the TGI in [1], in experiment [2], in experiment [3], in experiment [4], in experiment [5] and in [6] was greater than 100 µM in each case. Besides, the TGI in [7] and in experiment [8] was greater than 100 µM throughout.

`O=C(Nc1ccc(N2CCNCC2)cn1)c1[nH]ncc1Nc1ncnc2sc3c(c12)CCC3`: the GI50 was 1.41 µM in [1]; 2.38 µM in [4]; 1.13 µM in experiment [9]; 20 µM in [5]; 4.31 µM in experiment [6]. The TGI turned out to be 2.98 µM in experiment [1]; 6.12 µM in experiment [4]; 2.67 µM in experiment [9]; 67.2 µM in experiment [5]; 23.9 µM in experiment [6].

Take `Cc1ccc(SSCCCCS(=O)O)cc1`: the TGI in experiment [1] was greater than 100 µM; in [2], 62.5 µM; in [3], 53.7 µM; in [4] it was 52.3 µM; in experiment [6], 96.4 µM; in experiment [7] it was 44.1 µM. Also, the TGI in experiment [8] was greater than 100 µM.

Regarding `N#CCCn1c(CCC(=O)Nc2ccc(Cl)cc2Cl)n[nH]c1=S`, the TGI in [1], in experiment [2], in experiment [3], in [4], in experiment [5] and in experiment [6] was greater than 100 µM in each case. The TGI in [7] and in [8] was greater than 100 µM throughout.

For the compound `COc1ccc([Se]c2ccc(OC)cc2)cc1`, the TGI is greater than 100 µM in experiment [1]; greater than 100 µM in experiment [2]; greater than 100 µM in experiment [3]; greater than 100 µM in experiment [4]; 93.5 µM in experiment [5]; greater than 100 µM in experiment [6]. The TGI in [7] and in [8] was greater than 100 µM throughout.

Regarding `Cc1ccccc1NC(=O)CC(=O)n1nc(-c2ccccc2)c(N=Nc2ccc([N+](=O)[O-])cc2)c1-c1ccccc1`, the TGI in [1] is 67.1 µM; in experiment [2] it was greater than 100 µM; in experiment [3], 24.5 µM; in experiment [4] it was 61.5 µM; in experiment [5], 58.4 µM; in experiment [6], 49.6 µM. Also, the results for the TGI in experiment [7] and in experiment [8] were 96.9 µM and greater than 100 µM, respectively.

For `NNC(=O)N/N=C1/C(=O)N(c2ccc(Cl)c(Cl)c2)C(=O)C(=O)C1c1nc2ccccc2o1` (stereo not given), the TGI in experiment [1], in [2], in experiment [3], in experiment [5], in [6] and in experiment [7] was greater than 100 µM throughout. Besides, the TGI in experiment [8] was greater than 100 µM.

Consider `O=S1Cc2ccccc2CSS1` (stereo not given), for which the TGI in [1] was found to be 29.1 µM; in experiment [3] it was 32.1 µM; in experiment [4], 31.6 µM; in experiment [5], 55.4 µM; in experiment [6], 37.9 µM; in [7], 26.8 µM. The same compound came in with a TGI in experiment [8] greater than 100 µM.

Turning to `CN(C)c1ccc(/C=c2\sc3nnc(Cc4ccccc4)n3c2=O)cc1`, the GI50 in experiment [1] was greater than 100 µM; in experiment [2] it was greater than 100 µM; in [3] it was greater than 10 µM; in experiment [4], greater than 100 µM; in [5], greater than 100 µM; in experiment [6], greater than 100 µM. In addition, the GI50 in experiment [7] and in experiment [8] was greater than 100 µM in each case. For the same compound, the TGI in [1], in experiment [2], in experiment [3], in experiment [4], in [5] and in experiment [6] was greater than 100 µM throughout. Also, the TGI in experiment [7] and in [8] was greater than 100 µM each time.

In the case of `COC(=O)C(C(=O)C(=O)Nc1ccc(N)cc1[N+](=O)[O-])c1nc2ccc(Cl)cc2[nH]c1=O` (stereo not given), the TGI in experiment [1], in [2], in experiment [3], in experiment [4], in experiment [5] and in experiment [6] was greater than 100 µM in each case. The TGI in experiment [7] and in experiment [8] was greater than 100 µM throughout.
